Experimental data: article PMC12073402, “A Selective MAP3K1 Inhibitor Facilitates Discovery of NPM1 as a Member of the Network” (Molecules, 2025)

Columns and labels:
Assay in all cases: KiNativ kinome profiling in PANC-1 lysate
Assay type in all cases: binding
[1] = target: T1, PCTAIRE2 (Homo sapiens, UniProt Q00537); conditions: Lys2
T1 construct: endogenous in cells; host or cells: PANC-1 cell lysate
Procedure, shortened: (§1)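 PANC-1 lysates were incubated with 5 μM inhibitor or DMSO, then labeled with a desthiobiotin-ATP acyl-phosphate probe that biotinylates conserved kinase lysines. Tryptic peptides were streptavidin-enriched and quantified by LC-MS/MS, reported as % change in MS signal from duplicate treated and duplicate control samples.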

[2] = target: T2, MASTL (Homo sapiens, UniProt Q96GX5)
T2 construct: endogenous in cells; host or cells: PANC-1
Procedure, shortened: as §1

[3] = target: T3, PKD1 (Homo sapiens, UniProt Q15139); conditions: Lys1
T3 construct: endogenous in cells; host or cells: PANC-1 cell lysate
Procedure, shortened: as §1

[4] = target: T4, CaMK1a (Homo sapiens, UniProt Q14012); conditions: Lys1
T4 construct: endogenous in cells; host or cells: PANC-1 cell lysate
Procedure, shortened: as §1

[5] = tested on: MAP2K1, MAP2K2; conditions: 5 µM
Procedure, shortened: as §1

[6] = tested on: Wnk1, Wnk2, Wnk4; conditions: 5 µM; ATP Loop; IGDLGLATLKR
Procedure, shortened: as §1

[7] = target: T5, JAK3 domain2 (Homo sapiens, UniProt P52333); conditions: Lys1
T5 construct: we opted to conduct a kinome screen (KiNativ) in PANC-1 cell lysates; endogenous in cells; host or cells: PANC-1 cell lysate
Procedure, shortened: as §1

[8] = target: T6, FAM20B (Homo sapiens, UniProt O75063); conditions: ATP
T6 construct: endogenous in cells; host or cells: PANC-1 lysate
Procedure, shortened: as §1

[9] = target: T7, PKR (Homo sapiens, UniProt P19525)
T7 construct: endogenous in cells; host or cells: PANC-1 cell lysate
Procedure, shortened: as §1

[10] = target: T8, NuaK1 (Homo sapiens, UniProt O60285); conditions: Lys1
T8 construct: endogenous in cells; host or cells: PANC-1 cell lysate
Procedure, shortened: as §1

[11] = target: T9, ULK3 (Homo sapiens, UniProt Q6PHR2); conditions: Lys1
T9 construct: endogenous in cells; host or cells: PANC-1 cell lysate
Procedure, shortened: as §1

[12] = target: T10, MLKL (Homo sapiens, UniProt Q8NB16); conditions: Lys1
T10 construct: endogenous in cells; host or cells: PANC-1
Procedure, shortened: as §1

[13] = target: T11, CK1g3 (Homo sapiens, UniProt Q9Y6M4); conditions: Lys2
T11 construct: endogenous in cells; host or cells: PANC-1 cell lysate
Procedure, shortened: as §1

[14] = tested on: MARK2, MARK3; conditions: 5 µM; Lys2; DLKAENLLLDADMNIK
Procedure, shortened: as §1

[15] = target: T12, CaMK1d (Homo sapiens, UniProt Q8IU85)
T12 construct: endogenous in cells; host or cells: PANC-1 cell lysate
Procedure, shortened: as §1

[16] = target: T13, SRPK1 (Homo sapiens, UniProt Q96SB4); conditions: Lys2
T13 construct: endogenous in cells; host or cells: PANC-1 cell lysate
Procedure, shortened: as §1

[17] = tested on: CDK11, CDK8; conditions: 5 µM; Lys2; DLKPANILVMGEGPER
Procedure, shortened: as §1

[18] = tested on: BRAF, RAF1; conditions: 5 µM; Activation Loop; IGDFGLATVKSR
Procedure, shortened: as §1

[19] = target: T14, NEK8 (Homo sapiens, UniProt Q86SG6); conditions: Lys2
T14 construct: endogenous in cells; host or cells: PANC-1 cell lysate
Procedure, shortened: as §1

[20] = target: T15, FRAP (Homo sapiens, UniProt P42345); conditions: ATP
T15 construct: endogenous in cells; host or cells: PANC-1 lysate
Procedure, shortened: as §1

[21] = target: T16, PIK3CA (Homo sapiens, UniProt P42336); conditions: ATP
T16 construct: endogenous in cells; host or cells: PANC-1 cell lysate
Procedure, shortened: as §1

[22] = target: T17, p38a (Homo sapiens, UniProt Q16539)
T17 construct: endogenous in cells; host or cells: PANC-1 cell lysate
Procedure, shortened: as §1

[23] = tested on: MST1, MST2; conditions: 5 µM
Procedure, shortened: as §1

[24] = target: T18, MAP3K2 (Homo sapiens, UniProt Q9Y2U5); conditions: Lys1
T18 construct: endogenous in cells; host or cells: PANC-1 cell lysate
Procedure, shortened: as §1

[25] = target: T19, NDR1 (Homo sapiens, UniProt Q15208)
T19 construct: endogenous in cells; host or cells: PANC-1
Procedure, shortened: as §1

[26] = target: T20, TEC (Homo sapiens, UniProt P42680); conditions: ATP Loop
T20 construct: endogenous in cells; host or cells: PANC-1 cell lysate
Procedure, shortened: as §1

T2 sequence (Q96GX5 whole entry): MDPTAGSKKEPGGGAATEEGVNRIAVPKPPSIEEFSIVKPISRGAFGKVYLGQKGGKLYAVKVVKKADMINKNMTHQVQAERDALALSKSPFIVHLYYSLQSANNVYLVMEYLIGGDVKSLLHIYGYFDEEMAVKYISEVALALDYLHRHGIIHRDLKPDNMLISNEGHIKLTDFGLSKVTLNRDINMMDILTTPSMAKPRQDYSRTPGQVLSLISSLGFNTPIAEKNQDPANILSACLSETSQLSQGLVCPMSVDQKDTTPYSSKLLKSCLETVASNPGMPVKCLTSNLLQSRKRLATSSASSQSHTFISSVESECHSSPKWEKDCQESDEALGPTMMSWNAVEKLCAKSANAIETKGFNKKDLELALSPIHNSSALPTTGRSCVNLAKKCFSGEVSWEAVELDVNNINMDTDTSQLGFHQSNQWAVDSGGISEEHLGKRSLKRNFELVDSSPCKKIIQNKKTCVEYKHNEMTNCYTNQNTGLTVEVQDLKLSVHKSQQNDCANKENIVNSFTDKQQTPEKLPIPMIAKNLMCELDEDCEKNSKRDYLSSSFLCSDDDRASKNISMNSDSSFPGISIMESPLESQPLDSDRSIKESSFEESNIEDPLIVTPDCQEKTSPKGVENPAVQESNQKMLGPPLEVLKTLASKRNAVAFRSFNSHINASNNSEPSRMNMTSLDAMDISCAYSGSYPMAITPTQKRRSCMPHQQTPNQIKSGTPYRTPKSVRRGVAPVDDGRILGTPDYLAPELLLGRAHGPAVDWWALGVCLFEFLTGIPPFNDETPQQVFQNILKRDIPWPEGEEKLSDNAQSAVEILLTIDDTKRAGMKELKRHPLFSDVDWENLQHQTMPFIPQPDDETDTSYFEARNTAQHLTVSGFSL
T7 sequence (P19525 whole entry): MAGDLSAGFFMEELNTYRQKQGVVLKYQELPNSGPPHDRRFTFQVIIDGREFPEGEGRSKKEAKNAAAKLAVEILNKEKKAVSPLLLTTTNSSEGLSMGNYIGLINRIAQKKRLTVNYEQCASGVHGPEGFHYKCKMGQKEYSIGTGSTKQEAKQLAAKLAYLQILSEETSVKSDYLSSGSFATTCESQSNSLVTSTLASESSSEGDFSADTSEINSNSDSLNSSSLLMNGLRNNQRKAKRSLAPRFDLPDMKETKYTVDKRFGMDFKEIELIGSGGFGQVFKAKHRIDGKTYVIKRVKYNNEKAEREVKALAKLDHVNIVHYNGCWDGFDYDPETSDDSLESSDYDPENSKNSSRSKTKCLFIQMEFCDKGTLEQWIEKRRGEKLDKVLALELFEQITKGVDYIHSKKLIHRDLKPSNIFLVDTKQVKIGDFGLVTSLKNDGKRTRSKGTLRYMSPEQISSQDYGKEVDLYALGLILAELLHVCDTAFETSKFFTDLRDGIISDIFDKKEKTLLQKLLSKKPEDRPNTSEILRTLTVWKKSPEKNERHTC
T17 sequence (Q16539 whole entry): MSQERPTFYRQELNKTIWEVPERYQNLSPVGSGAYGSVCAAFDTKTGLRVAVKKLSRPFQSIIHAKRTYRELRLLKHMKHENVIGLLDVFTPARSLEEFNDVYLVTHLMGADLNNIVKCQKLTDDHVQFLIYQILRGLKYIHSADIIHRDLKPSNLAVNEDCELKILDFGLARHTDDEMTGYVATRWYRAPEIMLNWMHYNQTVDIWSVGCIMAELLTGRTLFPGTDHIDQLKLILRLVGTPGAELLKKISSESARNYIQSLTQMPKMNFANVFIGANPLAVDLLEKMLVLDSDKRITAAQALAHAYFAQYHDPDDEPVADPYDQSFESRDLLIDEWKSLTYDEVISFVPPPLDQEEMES
T12 sequence (Q8IU85 whole entry): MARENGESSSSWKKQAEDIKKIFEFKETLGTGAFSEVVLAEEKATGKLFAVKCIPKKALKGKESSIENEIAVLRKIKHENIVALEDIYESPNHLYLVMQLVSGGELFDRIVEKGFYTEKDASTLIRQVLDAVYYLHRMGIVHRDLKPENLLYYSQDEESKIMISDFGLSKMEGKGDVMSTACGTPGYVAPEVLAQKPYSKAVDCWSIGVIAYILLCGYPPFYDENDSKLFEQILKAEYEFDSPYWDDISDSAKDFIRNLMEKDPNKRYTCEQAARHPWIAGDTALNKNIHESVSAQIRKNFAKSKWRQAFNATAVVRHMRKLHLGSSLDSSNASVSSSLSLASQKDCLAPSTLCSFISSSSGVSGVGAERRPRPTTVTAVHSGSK
T19 sequence (Q15208 whole entry): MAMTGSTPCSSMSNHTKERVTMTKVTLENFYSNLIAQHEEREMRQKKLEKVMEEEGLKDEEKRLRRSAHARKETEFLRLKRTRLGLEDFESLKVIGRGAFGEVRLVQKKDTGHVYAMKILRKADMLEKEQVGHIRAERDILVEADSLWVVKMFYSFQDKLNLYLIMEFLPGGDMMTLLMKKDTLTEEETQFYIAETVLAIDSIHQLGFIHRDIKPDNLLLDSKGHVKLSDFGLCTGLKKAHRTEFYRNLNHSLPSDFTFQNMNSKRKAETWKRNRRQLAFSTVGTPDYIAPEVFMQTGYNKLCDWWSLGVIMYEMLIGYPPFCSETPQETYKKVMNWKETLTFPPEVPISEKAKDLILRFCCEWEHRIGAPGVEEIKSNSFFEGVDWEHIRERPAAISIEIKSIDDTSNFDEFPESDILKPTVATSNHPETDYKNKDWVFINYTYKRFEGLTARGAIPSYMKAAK
T13 sequence (Q96SB4 whole entry): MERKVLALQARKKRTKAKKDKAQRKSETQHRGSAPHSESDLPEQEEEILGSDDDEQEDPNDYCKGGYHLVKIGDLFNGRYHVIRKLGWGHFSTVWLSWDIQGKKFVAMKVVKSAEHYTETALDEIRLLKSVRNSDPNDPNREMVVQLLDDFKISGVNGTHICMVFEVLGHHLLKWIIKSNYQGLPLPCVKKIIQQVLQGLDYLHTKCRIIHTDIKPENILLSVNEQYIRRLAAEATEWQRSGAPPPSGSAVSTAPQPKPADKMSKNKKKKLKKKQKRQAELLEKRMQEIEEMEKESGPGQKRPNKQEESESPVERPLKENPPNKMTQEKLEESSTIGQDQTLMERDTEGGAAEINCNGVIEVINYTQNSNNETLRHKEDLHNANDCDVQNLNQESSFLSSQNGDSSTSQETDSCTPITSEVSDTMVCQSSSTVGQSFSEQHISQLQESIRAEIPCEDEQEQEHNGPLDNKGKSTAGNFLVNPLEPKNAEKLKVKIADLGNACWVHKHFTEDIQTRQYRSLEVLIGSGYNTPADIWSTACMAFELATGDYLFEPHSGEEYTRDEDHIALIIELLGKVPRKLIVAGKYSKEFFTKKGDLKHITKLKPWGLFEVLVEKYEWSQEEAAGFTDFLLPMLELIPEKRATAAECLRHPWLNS
T10 sequence (Q8NB16 whole entry): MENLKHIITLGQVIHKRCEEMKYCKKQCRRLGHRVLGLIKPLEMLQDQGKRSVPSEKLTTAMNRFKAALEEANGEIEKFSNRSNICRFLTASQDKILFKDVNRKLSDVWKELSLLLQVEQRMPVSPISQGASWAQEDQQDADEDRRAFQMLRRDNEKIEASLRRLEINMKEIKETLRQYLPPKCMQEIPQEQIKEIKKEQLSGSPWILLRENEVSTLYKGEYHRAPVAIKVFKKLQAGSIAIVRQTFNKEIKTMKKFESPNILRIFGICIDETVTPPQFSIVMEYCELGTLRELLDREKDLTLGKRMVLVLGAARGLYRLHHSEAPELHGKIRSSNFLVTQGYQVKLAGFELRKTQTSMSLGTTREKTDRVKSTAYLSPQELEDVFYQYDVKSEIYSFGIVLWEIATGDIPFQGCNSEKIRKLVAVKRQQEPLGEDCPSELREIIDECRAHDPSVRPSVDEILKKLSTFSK
T9 sequence (Q6PHR2 whole entry): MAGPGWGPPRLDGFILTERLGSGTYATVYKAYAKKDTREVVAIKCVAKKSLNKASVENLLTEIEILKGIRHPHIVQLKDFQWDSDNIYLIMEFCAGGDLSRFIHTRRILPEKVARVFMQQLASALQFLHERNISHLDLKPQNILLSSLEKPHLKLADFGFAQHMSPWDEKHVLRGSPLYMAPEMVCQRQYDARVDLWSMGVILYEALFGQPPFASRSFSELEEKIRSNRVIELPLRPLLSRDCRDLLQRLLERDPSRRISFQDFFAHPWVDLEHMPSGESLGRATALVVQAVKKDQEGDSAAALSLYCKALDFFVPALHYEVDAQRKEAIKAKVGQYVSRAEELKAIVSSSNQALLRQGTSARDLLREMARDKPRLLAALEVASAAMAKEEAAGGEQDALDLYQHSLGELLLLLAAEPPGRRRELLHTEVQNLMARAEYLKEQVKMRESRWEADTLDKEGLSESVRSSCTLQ
T4 sequence (Q14012 whole entry): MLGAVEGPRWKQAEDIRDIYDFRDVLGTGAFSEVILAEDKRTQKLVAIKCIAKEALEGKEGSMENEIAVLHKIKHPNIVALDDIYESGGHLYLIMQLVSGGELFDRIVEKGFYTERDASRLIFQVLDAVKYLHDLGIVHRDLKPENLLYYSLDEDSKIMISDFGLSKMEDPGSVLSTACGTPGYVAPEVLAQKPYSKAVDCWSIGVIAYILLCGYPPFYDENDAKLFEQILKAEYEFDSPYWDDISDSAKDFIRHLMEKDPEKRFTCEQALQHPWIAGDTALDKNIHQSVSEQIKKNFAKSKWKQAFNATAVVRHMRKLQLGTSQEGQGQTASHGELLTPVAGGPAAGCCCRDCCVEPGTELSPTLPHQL

SMILES: Cn1cc(-c2cnc3ccc(NC(=O)Nc4ccc(F)c(C(F)(F)F)c4)cc3n2)cn1 [51-106, 1-(4-Fluoro-3-(trifluoromethyl)phenyl)-3-(3-(1-methyl-1H-pyrazol-4-yl)quinoxalin-6-yl)urea]
- inhibition at 5 µM [1]: 9.7%
- inhibition at 5 µM ([2]; ATP Loop, GAFGKVYLGQK): 8.6%
- inhibition at 5 µM ([2]; Lys1, LYAVKVVK): ≤ 0%
- inhibition at 5 µM [3]: ≤ 0%
- inhibition at 5 µM [4]: ≤ 0%
- % Inhibition ([5]; Lys1, KLIHLEIKPAIR): NB (NB = No Binding (≤ 0))
- % Inhibition ([5]; Lys2, DVKPSNILVNSR): 1.2%
- % Inhibition [6]: 4.6%
- inhibition at 5 µM [7]: 25.2%
- inhibition at 5 µM [8]: 6.6%
- inhibition at 5 µM ([9]; ATP Loop, IGDFGLVTSLKNDGKR): ≤ 0%
- inhibition at 5 µM ([9]; Lys2, DLKPSNIFLVDTK): 18.7%
- inhibition at 5 µM [10]: ≤ 0%
- inhibition at 5 µM [11]: ≤ 0%
- inhibition at 5 µM [12]: ≤ 0%
- inhibition at 5 µM [13]: 11.5%
- % Inhibition [14]: 11.3%
- inhibition at 5 µM ([15]; Lys1, LFAVKCIPK): 30.3%
- inhibition at 5 µM ([15]; Lys2, DLKPENLLYYSQDEESK): ≤ 0%
- inhibition at 5 µM [16]: 4.4%
- % Inhibition [17]: 15.4%
- % Inhibition [18]: 12.7%
- inhibition at 5 µM [19]: ≤ 0%
- inhibition at 5 µM [20]: ≤ 0%
- inhibition at 5 µM [21]: ≤ 0%
- inhibition at 5 µM ([22]; Lys2, DLKPSNLAVNEDCELK): ≤ 0%
- inhibition at 5 µM ([22]; Other, QELNKTIWEVPER): 7.5%
- % Inhibition ([23]; ATP Loop, LADFGVAGQLTDTMAKR): 2.7%
- % Inhibition ([23]; Lys2, DIKAGNILLNTEGHAK): NB (NB = No Binding (≤ 0))
- inhibition at 5 µM [24]: ≤ 0%
- inhibition at 5 µM ([25]; Lys1, DTGHVYAMKILR): 6%
- inhibition at 5 µM ([25]; Lys2, DIKPDNLLLDSK): ≤ 0%
- inhibition at 5 µM [26]: 20.1%
